Patent publication US20150231236A1, “METHODS FOR TREATING PATIENTS WITH HYPERCHOLESTEROLEMIA THAT IS NOT ADEQUATELY CONTROLLED BY MODERATE-DOSE STATIN THERAPY” (Regeneron Pharmaceuticals, Inc., priority 2014, published 2015)

Assays:
[1] = system: patients with hypercholesterolemia at high CV risk not adequately controlled with rosuvastatin (10 mg or 20 mg); assay: Example 3: randomized, double-blind trial, lipid efficacy of mAb316P add-on to rosuvastatin vs EZE add-on or rosuvastatin dose doubling; assay type: in vivo, human; settings: for Proportion of Patients Reaching LDL-C goal (%): week 24, LDL-C <70 mg/dL very high risk or <100 mg/dL high risk
Procedure: The present study was a randomized, double-blind, active-comparator, parallel-group study in patients at high CV risk with non-FH or heFH who are not adequately controlled with rosuvastatin (10 mg or 20 mg) with or without other lipid-modifying therapy (LMT) (excluding EZE). The study design is illustrated in FIG. 2. Patients who entered the study were taking either rosuvastatin 10 mg or rosuvastatin 20 mg. The former patients were randomized to 1 of 3 treatment arms (arms 1 to 3); the latter patients were randomized to 1 of 3 treatment arms (arms 4 to 6). The treatment arms are as follows:
(B) a double-blind treatment period of 24 weeks. […] The patient/caregiver administered subsequent injections outside of the clinic according to the dosing schedule. […] The last dose of daily oral study drugs was administered at week 24.
The first injection of study drug was administered at the clinical site, as soon as possible after the patient was randomized into the study. The patient was monitored at the clinical site for at least 30 minutes following the first injection. The patient/caregiver administered subsequent injections outside of the clinic, according to the dosing schedule.
The primary efficacy endpoint was the percent change in calculated LDL-C from baseline to week 24, which is defined as: 100× (calculated LDL-C value at week 24−calculated LDL-C value at baseline)/calculated LDL-C value at baseline. The baseline calculated LDL-C value was the last LDL-C level obtained before the first double-blind study drug injection. The calculated LDL-C at week 24 was the LDL-C level obtained within the week 24 analysis window and during the main efficacy period. The main efficacy period is defined as the time from the first double-blind study drug injection up to 21 days after the last double-blind study drug injection or up to the upper limit of the week 24 analysis window, whichever comes first.
Total-C, HDL-C, TG, ApoB, ApoA-1, and Lp(a) were directly measured by a central laboratory. LDL-C was calculated using the Friedewald formula. […] Non-HDL-C was calculated by subtracting HDL-C from the total-C. Ratio ApoB/ApoA-1 was calculated.
For clarification, the ITT analysis is defined for patients in the ITT population and includes all endpoint assessments in an analysis window, regardless of study treatment dosing status (i.e. includes post-treatment assessments). The on-treatment analysis is defined for patients in the mITT population and includes all endpoint assessments from the first double-blind study drug (capsule or injection, whichever comes first) up to 21 days after the last double-blind study drug injection or 3 days after the last capsule intake, whichever comes first (i.e. includes assessments in the efficacy treatment period).

[2] = system: patients with hypercholesterolemia at high CV risk not adequately controlled with rosuvastatin (10 mg or 20 mg); assay: Example 3: safety, treatment-emergent adverse events in pooled treatment groups; settings: mAb316P group
[3] = ITT Population, Comparison 1: mAb316P + rosuvastatin 10 mg arm vs. rosuvastatin 20 mg arm
[4] = ITT Population, Comparison 2: mAb316P + rosuvastatin 10 mg arm vs. EZE + rosuvastatin 10 mg arm
[5] = ITT Population, Comparison 3: mAb316P + rosuvastatin 20 mg arm vs. rosuvastatin 40 mg arm
[6] = ITT Population, Comparison 4: mAb316P + rosuvastatin 20 mg arm vs. EZE + rosuvastatin 20 mg arm
[7] = mITT Population, Comparison 1: mAb316P + rosuvastatin 10 mg arm vs. rosuvastatin 20 mg arm
[8] = mITT Population, Comparison 2: mAb316P + rosuvastatin 10 mg arm vs. EZE + rosuvastatin 10 mg arm
[9] = mITT Population, Comparison 3: mAb316P + rosuvastatin 20 mg arm vs. rosuvastatin 40 mg arm
[10] = mITT Population, Comparison 4: mAb316P + rosuvastatin 20 mg arm vs. EZE + rosuvastatin 20 mg arm

mAb316P: human anti-PCSK9 antibody; heavy chain SEQ ID NO:5, light chain SEQ ID NO:9
Proportion of Patients Reaching LDL-C goal (%) ([1]; Baseline Rosuvastatin 10 mg): 84.9% | Proportion of Patients Reaching LDL-C goal (%) ([1]; Baseline Rosuvastatin 20 mg): 66.7% | LS Mean Difference, percent change from baseline of Apo B to week 24 [1, 3]: −29.2% | LS Mean Difference, percent change from baseline of Apo-B to week 12 [1, 3]: −28.1% | LS Mean Difference, percent change from baseline of HDL-C at week 24 [1, 3]: 7.4% | LS Mean Difference, percent change from baseline of Lp(a) to week 24 [1, 3]: −23.9% | LS Mean Difference, percent change from baseline of Non-HDL-C to week 12 [1, 3]: −29.5% | LS Mean Difference, percent change from baseline of Total-C to week 12 [1, 3]: −20.1% | LS Mean Difference, percent change from baseline of Total-C to week 24 [1, 3]: −20.6% | LS Mean Difference, percent change from baseline of calculated LDL-C to week 12 [1, 3]: −32.5% | LS Mean Difference, percent change from baseline of calculated LDL-C to week 24 [1, 3]: −34.2% | LS Mean Difference, percent change from baseline of non-HDL-C to week 24 [1, 3]: −31.4% | Odds Ratio, proportion of patients reaching calculated LDL-C < 70 mg/dL (1.81 mmol/L) at Week 24 [1, 3]: 18.6 | Odds Ratio, proportion of very high CV risk patients reaching calculated LDL-C < 70 mg/dL or high CV risk patients reaching calculated LDL-C < 100 mg/dL at Week 24 [1, 3]: 10.2 | LS Mean Difference, percent change from baseline of Apo B to week 24 [1, 4]: −26.8% | LS Mean Difference, percent change from baseline of Apo-B to week 12 [1, 4]: −24.0% | LS Mean Difference, percent change from baseline of HDL-C at week 24 [1, 4]: 5.1% | LS Mean Difference, percent change from baseline of Lp(a) to week 24 [1, 4]: −23.6% | LS Mean Difference, percent change from baseline of Non-HDL-C to week 12 [1, 4]: −24.9% | LS Mean Difference, percent change from baseline of Total-C to week 12 [1, 4]: −17.2% | LS Mean Difference, percent change from baseline of Total-C to week 24 [1, 4]: −20.3% | LS Mean Difference, percent change from baseline of calculated LDL-C to week 12 [1, 4]: −32.2% | LS Mean Difference, percent change from baseline of calculated LDL-C to week 24 [1, 4]: −36.1% | LS Mean Difference, percent change from baseline of non-HDL-C to week 24 [1, 4]: −29.3% | Odds Ratio, proportion of patients reaching calculated LDL-C < 70 mg/dL (1.81 mmol/L) at Week 24 [1, 4]: 11.6 | Odds Ratio, proportion of very high CV risk patients reaching calculated LDL-C < 70 mg/dL or high CV risk patients reaching calculated LDL-C < 100 mg/dL at Week 24 [1, 4]: 7.8 | LS Mean Difference, percent change from baseline of Apo B to week 24 [1, 5]: −18.5% | LS Mean Difference, percent change from baseline of Apo-B to week 12 [1, 5]: −15.3% | LS Mean Difference, percent change from baseline of HDL-C at week 24 [1, 5]: 5.7% | LS Mean Difference, percent change from baseline of Lp(a) to week 24 [1, 5]: −17.5% | LS Mean Difference, percent change from baseline of Non-HDL-C to week 12 [1, 5]: −11.8% | LS Mean Difference, percent change from baseline of Total-C to week 12 [1, 5]: −5.5% | LS Mean Difference, percent change from baseline of Total-C to week 24 [1, 5]: −12.1% | LS Mean Difference, percent change from baseline of calculated LDL-C to week 12 [1, 5]: −10.2% | LS Mean Difference, percent change from baseline of calculated LDL-C to week 24 [1, 5]: −20.3% | LS Mean Difference, percent change from baseline of non-HDL-C to week 24 [1, 5]: −20.1% | Odds Ratio, proportion of patients reaching calculated LDL-C < 70 mg/dL (1.81 mmol/L) at Week 24 [1, 5]: 6.1 | Odds Ratio, proportion of very high CV risk patients reaching calculated LDL-C < 70 mg/dL or high CV risk patients reaching calculated LDL-C < 100 mg/dL at Week 24 [1, 5]: 4.7 | LS Mean Difference, percent change from baseline of Apo B to week 24 [1, 6]: −17.1% | LS Mean Difference, percent change from baseline of Apo-B to week 12 [1, 6]: −14.7% | LS Mean Difference, percent change from baseline of HDL-C at week 24 [1, 6]: 9.0% | LS Mean Difference, percent change from baseline of Lp(a) to week 24 [1, 6]: −16.9% | LS Mean Difference, percent change from baseline of Non-HDL-C to week 12 [1, 6]: −11.0% | LS Mean Difference, percent change from baseline of Total-C to week 12 [1, 6]: −5.5% | LS Mean Difference, percent change from baseline of Total-C to week 24 [1, 6]: −8.2% | LS Mean Difference, percent change from baseline of calculated LDL-C to week 12 [1, 6]: −12.9% | LS Mean Difference, percent change from baseline of calculated LDL-C to week 24 [1, 6]: −25.3% | LS Mean Difference, percent change from baseline of non-HDL-C to week 24 [1, 6]: −18.4% | Odds Ratio, proportion of patients reaching calculated LDL-C < 70 mg/dL (1.81 mmol/L) at Week 24 [1, 6]: 2.5 | Odds Ratio, proportion of very high CV risk patients reaching calculated LDL-C < 70 mg/dL or high CV risk patients reaching calculated LDL-C < 100 mg/dL at Week 24 [1, 6]: 2.3 | proportion of patients who reached LDL-C level of <70 mg/dL (1.81 mmol/L) at Week 24 ([1]; baseline rosuvastatin 10 mg regimen): 77.8% | proportion of patients who reached LDL-C level of <70 mg/dL (1.81 mmol/L) at Week 24 ([1]; baseline rosuvastatin 20 mg regimen): 60.1% | LS Mean Difference, percent change from baseline of Apo B to week 24 [1, 7]: −30.7% | LS Mean Difference, percent change from baseline of calculated LDL-C to week 12 [1, 7]: −35.3% | LS Mean Difference, percent change from baseline of calculated LDL-C to week 24 [1, 7]: −35.2% | LS Mean Difference, percent change from baseline of non-HDL-C to week 24 [1, 7]: −32.8% | Odds Ratio, proportion of patients reaching calculated LDL-C < 70 mg/dL (1.81 mmol/L) at Week 24 [1, 7]: 20.3 | Odds Ratio, proportion of very high CV risk patients reaching calculated LDL-C < 70 mg/dL or high CV risk patients reaching calculated LDL-C < 100 mg/dL at Week 24 [1, 7]: 12.4 | LS Mean Difference, percent change from baseline of Apo B to week 24 [1, 8]: −28.3% | LS Mean Difference, percent change from baseline of calculated LDL-C to week 12 [1, 8]: −32.3% | LS Mean Difference, percent change from baseline of calculated LDL-C to week 24 [1, 8]: −33.2% | LS Mean Difference, percent change from baseline of non-HDL-C to week 24 [1, 8]: −28.2% | Odds Ratio, proportion of patients reaching calculated LDL-C < 70 mg/dL (1.81 mmol/L) at Week 24 [1, 8]: 12.7 | Odds Ratio, proportion of very high CV risk patients reaching calculated LDL-C < 70 mg/dL or high CV risk patients reaching calculated LDL-C < 100 mg/dL at Week 24 [1, 8]: 8.9 | LS Mean Difference, percent change from baseline of Apo B to week 24 [1, 9]: −17.7% | LS Mean Difference, percent change from baseline of calculated LDL-C to week 12 [1, 9]: −12.3% | LS Mean Difference, percent change from baseline of calculated LDL-C to week 24 [1, 9]: −24.5% | LS Mean Difference, percent change from baseline of non-HDL-C to week 24 [1, 9]: −20.7% | Odds Ratio, proportion of patients reaching calculated LDL-C < 70 mg/dL (1.81 mmol/L) at Week 24 [1, 9]: 9.0 | Odds Ratio, proportion of very high CV risk patients reaching calculated LDL-C < 70 mg/dL or high CV risk patients reaching calculated LDL-C < 100 mg/dL at Week 24 [1, 9]: 5.9 | LS Mean Difference, percent change from baseline of Apo B to week 24 [1, 10]: −17.8% | LS Mean Difference, percent change from baseline of calculated LDL-C to week 12 [1, 10]: −13.3% | LS Mean Difference, percent change from baseline of calculated LDL-C to week 24 [1, 10]: −24.9% | LS Mean Difference, percent change from baseline of non-HDL-C to week 24 [1, 10]: −17.4% | Odds Ratio, proportion of patients reaching calculated LDL-C < 70 mg/dL (1.81 mmol/L) at Week 24 [1, 10]: 3.4 | Odds Ratio, proportion of very high CV risk patients reaching calculated LDL-C < 70 mg/dL or high CV risk patients reaching calculated LDL-C < 100 mg/dL at Week 24 [1, 10]: 2.7 | TEAE influenza [2]: 4 patients | TEAE upper respiratory tract infection [2]: 6 patients | TEAE urinary tract infection [2]: 4 patients
